Test results: patent publication US20110295343A1, “NEAR-INFRARED ELECTROMAGNETIC MODIFICATION OF CELLULAR STEADY-STATE MEMBRANE POTENTIALS” (priority 2008, published 2011)
Where “and” joins values, the source holds several entries; their conditions need not be identical. Equal values may be shown once.

Experiments:
[1] = tested on: MRSA; assay: CFU counts of MRSA plated on agar with antibiotic after sub-lethal NIMELS laser (Examples IX-XII); assay type: cell-based, Staphylococcus aureus; conditions: for effect of sub-lethal NIMELS irradiation on antibiotic action against MRSA colonies (words): antibiotic at resistant MIC just below effectiveness level
From the text: The following parameters illustrate the general bacterial methods according to the invention as applied to MRSA for the in vitro Experiments V and VIII-XII.
The null hypothesis is μ1−μ2=0 and μ1−μ3=0 where:
a) μ1 is sub-lethal dosimetry from the NIMEL laser system on MRSA as a control and;
The null hypothesis is μ1−μ2=0 and μ1−μ3=0 where: • a) μ1 is sub-lethal dosimetry from the NIMEL laser system on MRSA as a control and; • b)μ2 is the same sub-lethal dosimetry from the NIMEL laser system on MRSA with the addition of tetracycline at resistant MIC just below effectiveness level and; • c) μ3 is the same sub-lethal dosimetry from the NIMEL laser system on MRSA with the addition of rifampin at resistant MIC just below effectiveness level.
The null hypothesis is μ1−μ2=0 and μ1−μ3=0 where: a) μ1 is sub-lethal dosimetry from the NIMEL laser system on MRSA as a control and; b)μ2 is the same sub-lethal dosimetry from the NIMEL laser system on MRSA with the addition of methicillin at resistant MIC just below effectiveness level and; […]

[2] = tested on: MRSA in the nares; assay: Nasal colonization human study Part One, quantitative swab cultures, MRSA; assay type: in vivo, S. aureus; conditions: for MRSA Average: laser w/ drug arm, one line per patient; for reduction of bioburden: laser plus 2% erythromycin paste
Method: (§1) This investigational protocol was an open-label study of subjects who are colonized with MRSA in the nares (nostril). The study was done in two parts.
(§2) In this human study, three arms were produced. […] This was done on day 1 and again on day three; and Arm #3: ⅓ of the subjects were treated with the laser and then a topical antibiotic three times a day for five days. Prior to enrollment in this study, prospective subjects met all of the following criteria: age≧18 years and ≦70 years of age; previous positive MRSA culture; negative urine pregnancy test or post-menopausal for one year; willing to comply with study requirements, including return visits and self-application of topical antibiotics; and willing to provide informed consent to participate. Prospective subjects were excluded from this study if any of the following criteria were met: pregnancy; patients who are severely immunocompromised (such as may occur in AIDS, renal transplant regimens, immunosuppressed states consequent to malignancy or agents used in rendering oncologic care, or who suffer from end stage renal disease); diabetic patients; allergy to antimicrobials being used in the study (group 3).
(§3) All participants underwent an initial quantitative assessment for nasal carriage of S. aureus, during their first visit. Each participant had the anterior nares (each nostril) sampled for culture with a circular movement (three rotations on each side) of a sterile wood applicator plain Rayon® tipped swab in each nostril and placed in a labled tube. 2 ml of room temp phosphate buffered saline was placed in the tube after the removal of the swab (to completely cover the swab in the tube). Each swab was then placed back in the tube and the tube was then vortexed for 15 seconds to disperse isolates of MRSA and/or MSSA into the PBS solution. Aliquots of PBS from the tube were plated in the following manner: 100 μl from each tube was lawn plated in triplicate (3×) on selective Chromogenic MRSA And MSSA agar. Plates were placed in incubator within 30 minutes of the plating procedure, and colonies were counted manually, and recorded 18 hrs after plating.
(§4) On day one of the study, all subjects underwent this exact procedure in arms 1 and 2 of the study two minutes before the laser procedure. They again were sampled in the same manner 2 minutes after the laser procedure. In the third arm of the study, they were swabbed two minutes before the procedure and the first antibiotic administration was completed after the laser therapy. The post/laser swab sample was taken for this arm 20 min later.
(§5) On day three of the study, all subjects from arms one two and three underwent the exact same procedures as day 1 of the study.
(§6) On day five all subjects from all arms underwent just one swabbing per nostril with the exact same sampling procedure one time.
(§7) Application of H202: 3% OTC hydrogen peroxide was applied to a cotton pledget for application to the subject prior to irradiation. This was inserted in the nose for 120 seconds and then removed. The subjects were then given doses of phototherapeutic near infrared radiation as described. Application of generic topical Antimicrobial: The subjects were first given doses of phototherapeutic near infrared radiation as described. […] The swab was inserted approximately 1 cm in to the anterior nares and rotated 360 degrees several times and removed. Patients were instructed to perform the exact application procedure 3 times a day for the remaining 5 days.
(§8) The NOVEON™ laser was used for two (2) six-minute treatments in each nostril on day (1) and day (3) of the study.
(§9) The laser was calibrated before the first treatment of the day. Intermittent temperature testing of the treatment site was performed on each subject using a noncontact infrared thermometer (Raytek Minitemp), 30-60 second intervals.

[3] = tested on: MSSA in the nares; assay: Nasal colonization human study Part One, quantitative swab cultures, MSSA; assay type: in vivo, S. aureus; conditions: for s. aureus Average: laser w/ drug arm, one line per patient
Method: as §1, §2, §3, §4, §5, §6, §7, §8, §9

[4] = tested on: MSSA in the nares; assay: Nasal colonization human study Part Two, laser plus topical erythromycin, MSSA; assay type: in vivo, S. aureus; conditions: one patient, baseline count >1000 CFU's; day 5 culture
Method: A second human study was conducted, to further evaluate the therapeutic potential of the NOVEON™ laser system, including its ability to reverse drug resistance in bacteria. The study was conducted in a similar manner as Part One, above. Outcome measures assessed included both laboratory study and clinical observations.
Positive anterior nares cultures were obtained in six patients (12 nostrils) having nasal colonization of MRSA or MSSA, before initiating bacterial photodamage through doses of phototherapeutic near infrared radiation. One patient had MRSA only, 3 had MSSA only, and 2 had both MRSA and MSSA.
The swab was inserted approximately 1 cm in to the anterior nares of the subject, rotated 360 degrees several times and removed.
The laser was calibrated before the first treatment of the day and between each patient. The NOVEON™ laser was used for four six-minute treatments of the nares at the following sets of dosimetries (Tables 59), which were evaluated for safety in previous studies. […] Temperatures of the nares were recorded every 30 seconds with an IR temperature thermometer.
Quantitative cultures from each nostril were obtained and plated in triplicate on chromogenic agar before and 20 minutes after exposure on day 1 and day 3. […]

[5] = Initial Analysis, Post-treatment swab, left nostril
[6] = Initial Analysis, Post-treatment swab, right nostril
[7] = Initial Analysis, Pre swab (baseline), left nostril, mean of triplicate plates
[8] = Initial Analysis, Pre swab (baseline), right nostril
[9] = Second Analysis, Post-treatment swab, left nostril
[10] = Second Analysis, Post-treatment swab, right nostril
[11] = Second Analysis, Pre swab, left nostril
[12] = Second Analysis, Pre swab, right nostril
[13] = Third Analysis, Swab, left nostril
[14] = Third Analysis, Swab, right nostril
[15] = patient 01-005, 2% erythromycin paste three times a day for five days

`CC[C@H]1OC(=O)[C@H](C)[C@@H](O[C@H]2C[C@@](C)(OC)[C@@H](O)[C@H](C)O2)[C@H](C)[C@@H](O[C@@H]2O[C@H](C)C[C@H](N(C)C)[C@H]2O)[C@](C)(O)C[C@@H](C)C(=O)[C@H](C)[C@@H](O)[C@]1(C)O` [Erythromycin] was tested, and the “effect of sub-lethal NIMELS irradiation on antibiotic action against MRSA colonies (words)” value [1] was “successful reversal of MRSA resistance”, the “effect of sub-lethal NIMELS irradiation on antibiotic action against MRSA colonies (words)” value ([1]; listed as erythromycin) was “resistance to erythromycin being reversed” and the “MRSA colony count, CONTROL (no laser)” value ([1]; no laser, agar with erythro 4 ug/ml, replicates B-4 1 to 5) was 196 and 168 and 175 and 177 and 195. The “MRSA colony count, EXPERIMENTAL” value ([1]; sub-lethal NIMELS laser, agar with erythro 4 ug/ml, replicates B-4 1 to 5) was 27 and 39 (2×) and 35 and 28, the “MRSA Average” value [2, 5] was 0 CFU (2×) and 166 CFU and the “MRSA Average” value [2, 6] was 0 CFU (2×) and 1 CFU. The “MRSA Average” value [2, 7] was 0 CFU (2×) and 3072 CFU, the “MRSA Average” value [2, 8] was 0 CFU (2×) and 8 CFU and the “MRSA Average” value [2, 9] was 0 CFU. For the same compound, the “MRSA Average” value [2, 10] was 0 CFU, the “MRSA Average” value [2, 11] was 0 CFU (2×) and 76 CFU and the “MRSA Average” value [2, 12] was 0 CFU. For the same compound, the “MRSA Average” value [2, 13] was 0 CFU, the “MRSA Average” value [2, 14] was 0 CFU and the reduction of bioburden ([2]; patient 01-005, heavily colonized nostril) was ≥ 3 log. For the same compound, the reduction of bioburden ([2]; patient 01-005, moderately colonized nostril) was ≥ 2 log, the “outcome on MRSA colonization, laser plus topical erythromycin” value [2, 15] was “eradication in both nostrils” and the “s. aureus Average” value [3, 5] was 0 CFU (2×) and 188 CFU. The “s. aureus Average” value [3, 6] was 0 CFU, the “s. aureus Average” value [3, 7] was 0 CFU (2×) and 3045 CFU and the “s. aureus Average” value [3, 8] was 0 CFU (2×) and 16 CFU. The “s. aureus Average” value [3, 9] was 0 CFU, the “s. aureus Average” value [3, 10] was 0 CFU and the “s. aureus Average” value [3, 11] was 0 CFU (2×) and 71 CFU. For the same compound, the “s. aureus Average” value [3, 12] was 0 CFU, the “s. aureus Average” value [3, 13] was 0 CFU and the “s. aureus Average” value [3, 14] was 0 CFU. The “outcome on MSSA colonization, laser plus topical erythromycin” value [3, 15] was “eradication in both nostrils” and the “reduction in MSSA” value [4] was 3 log.
